Experiment [1] concerns PD-L1. Kind of experiment: Western blotting / flow cytometry of PD-L1 and regulators in tumor cells. Format: cell-based, human. The following applies: for reversal of PD-L1 stability generated by DR5 agonists: MDA-MB-436 cells pretreated 0-8 hours with inhibitor, then DR5 agonist 6 hours. The method, then: Western Blotting. Cells were cultured overnight in tissue culture-treated 6-well plates prior to treatment. After antibody treatment for 48 hours or another indicated time, cells were rinsed with PBS and then lysed with RIPA buffer supplemented with protease inhibitor cocktail (ThermoFisher Scientific). Centrifugation at 14000 rpm for 30 minutes cleared lysates and protein was quantified by PIERCE™ BCA Protein Assay Kit (ThermoFisher Scientific). Western blotting was performed using the Bio-Rad SDS-PAGE Gel system. Briefly, 30 μg of protein was resolved on 10% Bis-Tris gels and then transferred onto PVDF membrane. Membranes were blocked for one hour at room temperature in TBS+0.1% Tween (TBST) with 5% non-fat dry milk. Membranes were probed overnight at 4° C. with primary antibodies. Membranes were washed three times in TBST and then incubated with anti-rabbit or anti-mouse secondary antibodies (1/10,000 dilution, coupled to peroxidase) for 1 hour at room temperature. Membranes were then washed three times with TBST and immunocomplexes were detected with SUPERSIGNAL™ West Pico Chemiluminescent Substrate (ThermoFisher Scientific). Images were taken using a Bio-Rad Gel Doc Imager system.
(§1) Flow cytometry. The cell surface expression of PD-L1, CD47, huDR5, muDR5, CD8, CD4, CD25 etc. was analyzed by flow cytometry. Overnight grown tumors were trypsinized and suspended in FACS buffer (PBS containing 2% FBS). Single cell suspensions were then incubated with primary DR4/DR5 antibodies for 1 hour at 4° C. with gentle mixing. Following wash with FACS buffer, the cells were then incubated with fluorescently labeled anti-Rabbit antibody for 1 hour. Cells were washed and flow cytometry was performed using a BD FACSCALIBUR™ flow cytometer. The data was analyzed by FCS Express (De Novo Software, Los Angeles, California, United States of America) and FlowJo.
In general terms: A western blot detects proteins with antibodies after separation by electrophoresis.

The test system of experiment [2] is PD-L1-PD-1 interaction. Kind of experiment: PD-1/PD-L1 tumor cell-Jurkat cell co-culture luciferase reporter assay. Format: cell-based, human. The following applies: tumor cells pretreated with ROCK1 inhibitor then DR5 agonist. On the procedure:
PD-1/PD-L1 reporter assay. […] The original kit contains PD-1 effector Jurkat T cells stably express human PD-1 and NFAT-induced luciferase, while PD-L1 aAPC/CHO-K1 cells stably express human PD-L1 and a cell surface protein designed to activate cognate TCRs in an antigen-independent manner. […] Antibodies blocking PD-1-PD-L1 interaction removes inhibitory signals, resulting in luciferase activation. […] Next day, medium was removed from the culture plate and cells were treated with diluted DR5 agonist antibodies. […] Glo response NFAT-luc2/PD1 Jurkat cells (Promega) were re-suspended in assay buffer and incubated with 1 μg/ml anti-CD3 for 2 hours to activate PD1 Jurkat cells. […] After 6 hours of co-culture, assay plates were removed from the incubator; content of each well were mixed thoroughly with the help of multi-channel pipette and then transferred to a white opaque assay plate. 10 mg/ml luciferase reagent was prepared and loaded into the plate reader, which injects 50 μl reagent in each well and measures luminescence immediately. Data was analyzed using Microsoft Excel software. Wherever indicated, inhibitors (ERK, STAT3, Caspase, ROCK1 etc.) were added 2-3 hrs prior to DR5 agonist antibodies in 96 well culture of tumors as described herein.
Background: A reporter such as luciferase makes a cellular process visible.

Experiment [3] relates to 4T1 tumors. In words: Tumor regression in 4T1 syngeneic TNBC tumor models. Type of experiment: in vivo, mouse. The following applies: BALB/c mice, 4T1 tumors; MD5-1 50 μg i.p., GSK269962 2 mg/kg into the tumors (FIG. 4K). The method, then:
FIGS. 4A-4K. DR5 agonist activated ROCK1 functions to help PD-L1 surface mobilization. (FIGS. 4A and 4B) KMTR2 and lexatumumab treated MDA-MB-436 and OVCAR3 (respectively) lysates for indicated early time points were analyzed for caspase-8, caspase-3, ROCK1, pMLC, PARP, PD-L1 and CMTM6 etc. as indicated. Vertical arrows indicate sequential kinetics of caspase-8, ROCK1, and caspase-3 activation, arrows with “n.s.” below them indicate nonspecific band by ROCK1 antibody. (FIG. 4C) OVCAR3 cells were treated with pMLC activating ionophore A23187 (positive control) and lexatumumab ±ROCK1 inhibitors or ±rDR5 or ±rFOLR1. Lysates were later analyzed for ROCK1, pMLC, caspase-3 and PARP with GAPDH as loading control. (FIG. 4D) MDA-MB-436 and OVCAR3 cells were treated with indicated ROCK1 inhibitors 2 hours prior to DR5 agonist KMTR2 treatment. After 4 hours flow cytometry was used to analyze surface PD-L1. […] Relative luciferase signal was quantified and plotted after subtraction of background signal from untreated cells. […] Tumor volumes were quantified at indicated days by caliper measurements. […] Statistical significance in FIG. 4J was determined by unpaired student t-test and in FIG. 4K using two-tailed […] Wilcoxon Mann-Whitney test. […]
FIGS. 6A-6M. […] CD8/CD45 and CD4/CD45 expressing cells were measured by flow cytometry. […] Harvested tumors homogenized followed by quantitation. […]

In experiment [4] the test system is MDA-MB-436 cells. In words: Flow cytometry of surface PD-L1 on tumor cells treated with DR5 agonist antibodies (FIG. 20B). Format: cell-based, human. On the procedure: FIGS. 20A-20C. (FIG. 20A) 3 biological replicates of total PD-L1 and GAPDH from triple negative breast cancer cell (MDAMB-436) and ovarian cell (OVCAR-3) lysates treated with lexatumumab for 6 hours. (FIG. 20B) Raw mean fluorescent intensity (MFI) and % positive PD-L1 counts from the cells treated with indicated DR5 agonist antibodies. MFI values are shown on the top of solid color bars. There are multiple instances (shown on the top) where despite having lower % positive PD-L1 population, MFI values were higher after indicated DR5 agonist treatments. As an example, in MDA-MB-436 cells treated with tigatuzumab and lexatumumab, lexatumumab treated cells had higher % positive PD-L1 population (9.32 vs 11.97), however MFI was higher in tigatuzumab treated population (107.54 vs 45.87). (FIG. 20C) KMTR2 treated (50 μg, 4 doses) UCD52 TNBC PDX tumors were stained for PD-L1 using immunohistochemistry (IHC). 3 additional representative images are shown. Also see FIG. 1L.
as §1
PD-L1 surface expression analysis of tumor derived cells. The cell surface expression of PD-L1 from tumor-derived cell was analyzed by flow cytometry. Isolated cells were suspended in FACS buffer (PBS containing 1% FBS). The single cell suspension was then incubated with primary PD-L1 antibodies (1:400 dilution) for 1 hour at 4° C. with gentle mixing. […] Following 3 times wash with FACS buffer, the cells were then incubated with fluorescently labeled (alexa 488) anti-Rabbit secondary antibody for 1 hour. Cells were then washed 3-4 times with FACS buffer and flow cytometry was performed using BD FACSCALIBUR™. The data was analyzed by FCS Express (De Novo Software) and FlowJo software.
(In general: Flow cytometry measures light scatter and fluorescence of single cells or particles in a stream.)

Data on 6 compounds can be found in patent US20230391881A1, “COMPOSITIONS AND METHODS FOR OVERCOMING DR5-INDUCED IMMUNE EVASION BY SOLID TUMORS” (University of Virginia Patent Foundation, priority 2020, published 2023).

*1 amine or outer side, *2 acyl side, *3 side chain or, on linkers, in order; H or OH if unused. Where a SMILES comes first, the peptide text is derived from it. Bridges are numbered along the chain shown (N, C = ends). Roman numbers before positions name the chains, in order. [ ]: non-standard residue; d: D form. The star is where a group is joined. Actinocin(9to1) = Cc1c2oc3c(C)ccc(C(=O)[*:1])c3nc-2c(C(=O)[*:2])c(N)c1=O; NMeV = CN[C@H](C(=O)O)C(C)C; Cbz = O=C(OCc1ccccc1)*; Sar = CNCC(=O)O

As to `C[C@@H]1C[C@@H]([C@H](O)CC2CC(=O)NC(=O)C2)C(=O)[C@@H](C)C1` [Cycloheximide], the “reversal of PD-L1 stability generated by DR5 agonists” value in experiment [1] was “did not also reversed PD-L1 stability”.

As to `CCn1c(-c2nonc2N)nc2cnc(Oc3cccc(NC(=O)c4ccc(OCCN5CCOCC5)cc4)c3)cc21` [GSK269962, N-(3-{[2-(4-Amino-1,2,5-oxadiazol-3-yl)-1-ethyl-1H-imidazo[4,5-c]pyridin-6-yl]oxy}phenyl)-4-[2-(morpholin-4-yl)ethoxy]benzamide], the “luciferase activity in co-culture reporter assay in presence of ROCK1 inhibitors” value in experiment [2] was “Increased average luciferase intensity”. Also, the “Tumor regression efficacy (tumor volume)” value in experiment [3] was “ineffective”.

On to `CC1=C(C(=O)Nc2cc3cn[nH]c3cc2F)C(c2ccc(C(F)(F)F)cc2)CC(=O)N1` (centres unmarked) [GSK429286, N-(6-Fluoro-1H-indazol-5-yl)-6-methyl-2-oxo-4-[4-(trifluoromethyl)phenyl]-3,4-dihydro-1H-pyridine-5-carboxamide], for which the “luciferase activity in co-culture reporter assay in presence of ROCK1 inhibitors” value in experiment [2] is “Increased average luciferase intensity”.

With `CC(C)C[C@@H](C=O)NC(=O)[C@H](CC(C)C)NC(=O)[C@H](CC(C)C)NC(=O)OCc1ccccc1` [MG132] (Cbz-Leu-Leu-Leu-aldehyde), the “PD-L1 stability with proteasome inhibition (MG132)” value in experiment [1] (cell surface or total lysates) is on record as “increased overall PD-L1”.

Consider `Cc1c2oc3c(C)ccc(C(=O)N[C@@H]4C(=O)N[C@H](C(C)C)C(=O)N5CCC[C@H]5C(=O)N(C)CC(=O)N(C)[C@@H](C(C)C)C(=O)O[C@@H]4C)c3nc-2c(C(=O)N[C@@H]2C(=O)N[C@H](C(C)C)C(=O)N3CCC[C@H]3C(=O)N(C)CC(=O)N(C)[C@@H](C(C)C)C(=O)O[C@@H]2C)c(N)c1=O` [actinomysin-D] (I: T[dV]P[Sar][NMeV] / II: T[dV]P[Sar][NMeV]; ester I:1-I:C, II:1-II:C; linker I:N-II:N via Actinocin(9to1)), for which the “reversal of PD-L1 stability generated by DR5 agonists” value in experiment [1] was “did not also reversed PD-L1 stability”.

Turning to “tigatuzumab: Monospecific Antibody, Human DR5 activator; VL and VH SEQ ID NOs: 3 and 4”, the “PD-L1 mean fluorescent intensity (MFI)” value in experiment [4] (MDA-MB-436 cells treated with DR5 agonist antibody (FIG. 20B)) was 107.54. Also, the “% positive PD-L1 population” value in experiment [4] (MDA-MB-436 cells treated with DR5 agonist antibody, raw flow cytometry counts (FIG. 20B)) is 9.32%.
